Assay [1] deals with NS3/4a protease inhibitor resistant variant D168A in genotype 1b transient HCV replicon. Kind of assay: Transient-transfected HCV replicon, genotype 1b D168A. Format: cell-based. The conditions noted are these: Hepatitis C virus, 72 h, read-out: EC50 1B D168A. In general terms: Replicon systems follow genome replication, usually without infectious particles.
In a further assay the target is T1, NS3 genotype 3a protease (UniProt Q81258).
T1 construct: Purified NS3 protease domain (amino acids 1-181) of the genotype 1b and 3a virus were generated as above; fused on or other part: N-terminal hexahistidine tag with an rTEV protease cleavage site (vector p28-N6H-Tev-NS3(181)3)
T1 sequence (Q81258 1033-1663): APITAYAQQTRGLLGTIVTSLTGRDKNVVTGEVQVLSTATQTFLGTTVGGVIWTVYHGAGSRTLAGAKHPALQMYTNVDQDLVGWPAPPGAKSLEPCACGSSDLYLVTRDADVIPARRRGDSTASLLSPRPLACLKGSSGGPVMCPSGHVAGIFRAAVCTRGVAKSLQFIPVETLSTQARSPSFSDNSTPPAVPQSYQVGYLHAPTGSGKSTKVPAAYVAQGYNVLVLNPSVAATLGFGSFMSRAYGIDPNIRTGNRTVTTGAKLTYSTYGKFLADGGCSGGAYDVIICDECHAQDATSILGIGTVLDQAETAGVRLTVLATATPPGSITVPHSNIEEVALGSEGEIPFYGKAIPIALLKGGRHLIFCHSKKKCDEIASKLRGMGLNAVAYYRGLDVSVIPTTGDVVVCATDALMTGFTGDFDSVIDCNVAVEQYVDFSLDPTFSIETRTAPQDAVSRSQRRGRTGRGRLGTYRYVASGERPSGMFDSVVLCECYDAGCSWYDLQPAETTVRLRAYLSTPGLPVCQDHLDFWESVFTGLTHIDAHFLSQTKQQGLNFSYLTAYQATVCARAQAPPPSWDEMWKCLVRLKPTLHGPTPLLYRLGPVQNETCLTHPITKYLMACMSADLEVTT
Kind of assay: Ki determination, NS3 protease genotype 3a (fluorogenic depsipeptide substrate). Format: biochemical, hepatitis C virus. The conditions noted are these: NS3 protease domain genotype 3a, NS4A peptide. The essentials:
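NS3 protease domain (aa 1-181), 50 pM (1b) or 200 pM (3a), with 20 μM NS4A peptide, pre-incubated 1 h with inhibitor (100 nM–5 pM); 4 μM (1b) or 2 μM (3a) FRET depsipeptide substrate, room temperature, pH-unspecified HEPES buffer with 40% glycerol, 10% DMSO. Steady-state rates at 90–120 min (ex 340/em 490); Morrison fit gave Ki^app, corrected to Ki via substrate/Km.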

Assay [2] deals with genotype 3a stable HCV replicon (S52) in Huh-7-derived cells. Kind of assay: Stable subgenomic HCV replicon, genotype 3a, Renilla luciferase. Format: cell-based. The conditions noted are these: Hepatitis C virus, 72 h, read-out: EC50 3A RLUC.
In assay [3] the test system is genotype 1b stable HCV replicon (Con1) in Huh-7-derived cells. The assay can be described thus: Stable subgenomic HCV replicon, genotype 1b, Renilla luciferase. Format: cell-based. The conditions noted are these: Hepatitis C virus, stable replicon genotype 1b, 72 h, read-out: EC50 1B RLUC. The essentials: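 Replicons carry hRLuc-neo, EMCV IRES and NS3-NS5B with adaptive mutations: 1a H77 P1496L/S2204I, 1b Con1 E1202G/T1280I/K1846T, 4a ED43 Q1691R/S2204I. EC50 came from non-linear regression versus DMSO and a triple-inhibitor full-inhibition control.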

Assay [4] deals with genotype 2a stable HCV replicon (JFH-1) in Huh-7-derived cells. The assay can be described thus: Stable subgenomic HCV replicon, genotype 2a, Renilla luciferase. It counts as cell-based. The conditions noted are these: Hepatitis C virus, stable replicon genotype 2a, 72 h, read-out: EC50 2A RLUC.

For orientation: EC50 means the concentration giving half of the maximal effect. By Ki is commonly meant a measure of affinity in units of concentration, obtained from inhibition or displacement. As to `CC(C)(C)[C@@H]1NC(=O)O[C@@H]2C[C@@H]3C[C@@H]3[C@H]2CCCCCc2nc3ccc(F)cc3nc2O[C@@H]2C[C@@H](C(=O)N[C@]3(C(=O)NS(=O)(=O)C4(C)CC4)C[C@H]3C(F)F)N(C2)C1=O` [Example 11, (1aS,2aR,6S,9S,11R,23aR,23bS)-6-tert-butyl-N-[(1R,2R)-2-(difluoromethyl)-1-{[(1-methylcyclopropyl)sulfonyl]carbamoyl}cyclopropyl]-15-fluoro-4,7-dioxo-1a,2,2a,4,5,6,7,10,11,19,20,21,22,23,23a,23b-hexadecahydro-1H,9H-8,11-methanocyclopropa[4′,5′]cyclopenta[1′,2′:18,19][1,10,3,6]dioxadiazacyclononadecino[11,12-b]quinoxaline-9-carboxamide], the concentration for a half-maximal effect (EC50) in assay [1] came out at 8.6 nM; in assay [2], 61 nM; in assay [3], 1.3 nM; in assay [4] it was 2 nM. The Ki on NS3 genotype 3a protease was found to be 0.09 nM.
As for `CC(C)(C)[C@@H]1NC(=O)O[C@@H]2C[C@@H]3C[C@@H]3[C@H]2CCCCCc2nc3ccc(F)cc3nc2O[C@@H]2C[C@@H](C(=O)N[C@]3(C(=O)NS(=O)(=O)C4CC4)C[C@H]3C(F)F)N(C2)C1=O` [Example 12, (1aS,2aR,6S,9S,11R,23aR,23bS)-6-tert-butyl-N-[(1R,2R)-1-[(cyclopropylsulfonyl)carbamoyl]-2-(difluoromethyl)cyclopropyl]-15-fluoro-4,7-dioxo-1a,2,2a,4,5,6,7,10,11,19,20,21,22,23,23a,23b-hexadecahydro-1H,9H-8,11-methanocyclopropa[4′,5′]cyclopenta[1′,2′:18,19][1,10,3,6]dioxadiazacyclononadecino[11,12-b]quinoxaline-9-carboxamide], the concentration giving a half-maximal response (EC50) in assay [1] was found to be 15.6 nM; in assay [2], 89 nM; in assay [3], 1.3 nM; in assay [4], 2.6 nM. Besides, the affinity on NS3 genotype 3a protease, expressed as Ki, was 0.09 nM.
For `CC(C)(C)[C@@H]1NC(=O)O[C@@H]2C[C@@H]3C[C@@H]3[C@H]2CC/C=C/C(F)(F)c2nc3ccc(C#N)cc3nc2O[C@@H]2C[C@@H](C(=O)N[C@]3(C(=O)NS(=O)(=O)C4(C)CC4)C[C@H]3C(F)F)N(C2)C1=O` [Example 13, (1aS,2aR,6S,9S,11R,20E,23aR,23bS)-6-tert-butyl-15-cyano-N-[(1R,2R)-2-(difluoromethyl)-1-{[(1-methylcyclopropyl)sulfonyl]carbamoyl}cyclopropyl]-19,19-difluoro-4,7-dioxo-1a,2,2a,4,5,6,7,10,11,19,22,23,23a,23b-tetradecahydro-1H,9H-8,11-methanocyclopropa[4′,5′]cyclopenta[1′,2′18,19][1,10,3,6]dioxadiazacyclononadecino[11,12-b]quinoxaline-9-carboxamide], in that order: 1.1 nM, 7.2 nM, 3 nM, 1.4 nM and 0.03 nM.
For `CC(C)(C)[C@@H]1NC(=O)O[C@@H]2C[C@@H]3C[C@@H]3[C@H]2CCCCC(F)(F)c2nc3ccc(C#N)cc3nc2O[C@@H]2C[C@@H](C(=O)N[C@]3(C(=O)NS(=O)(=O)C4(C)CC4)C[C@H]3C(F)F)N(C2)C1=O` [Example 14, (1aS,2aR,6S,9S,11R,23aR,23bS)-6-tert-butyl-15-cyano-N-[(1R,2R)-2-(difluoromethyl)-1-{[(1-methylcyclopropyl)sulfonyl]carbamoyl}cyclopropyl]-19,19-difluoro-4,7-dioxo-1a,2,2a,4,5,6,7,10,11,19,20,21,22,23,23a,23b-hexadecahydro-1H,9H-8,11-methanocyclopropa[4′,5′]cyclopenta [1′,2′:18,19][1,10,3,6]dioxadiazacyclononadecino[11,12-b]quinoxaline-9-carboxamide] the same measures were 0.65 nM, 5 nM, 1.1 nM, 1.4 nM and 0.01 nM.
Take `CC(C)(C)[C@@H]1NC(=O)O[C@@H]2C[C@@H]3C[C@@H]3[C@H]2CCCCC(F)(F)c2nc3ccc(OC(F)F)cc3nc2O[C@@H]2C[C@@H](C(=O)N[C@]3(C(=O)NS(=O)(=O)C4CC4)C[C@H]3C(F)F)N(C2)C1=O` [Example 16, (1aS,2aR,6S,9S,11R,23aR,23bS)-6-tert-butyl-N-[(1R,2R)-1-[(cyclopropylsulfonyl)carbamoyl]-2-(difluoromethyl)cyclopropyl]-15-(difluoromethoxy)-19,19-difluoro-4,7-dioxo-1a,2,2a,4,5,6,7,10,11,19,20,21,22,23,23a,23b-hexadecahydro-1H,9H-8,11-methanocyclopropa[4′,5′]cyclopenta [1′,2′:18,19][1,10,3,6]dioxadiazacyclononadecino[11,12-b]quinoxaline-9-carboxamide]: the EC50 in assay [1] came out at 7.9 nM; in assay [2], 127 nM; in assay [3] it was 4.2 nM; in assay [4], 2.3 nM. At NS3 genotype 3a protease, this compound yielded a Ki of 0.13 nM.
For `CC(C)(C)[C@@H]1NC(=O)O[C@@H]2C[C@@H]3C[C@@H]3[C@H]2CCCCC(F)(F)c2nc3ccccc3nc2O[C@@H]2C[C@@H](C(=O)N[C@]3(C(=O)NS(=O)(=O)C4(C)CC4)C[C@H]3C(F)F)N(C2)C1=O` [Example 17], in that order: 2.7 nM, 26 nM, 4.7 nM, 2.7 nM and 0.02 nM.
For `CC(C)(C)[C@@H]1NC(=O)O[C@@H]2C[C@@H]3C[C@@H]3[C@H]2CCCCC(F)(F)c2nc3ccccc3nc2O[C@@H]2C[C@@H](C(=O)N[C@]3(C(=O)NS(=O)(=O)C4CC4)C[C@H]3C(F)F)N(C2)C1=O` [Example 18], in that order: 2.6 nM, 18 nM, 4.1 nM, 2.6 nM and 0.02 nM.
Turning to `CC(C)(C)[C@@H]1NC(=O)O[C@@H]2C[C@@H]3C[C@@H]3[C@H]2CCCCCc2nc3ccc(Cl)cc3nc2O[C@@H]2C[C@@H](C(=O)N[C@]3(C(=O)NS(=O)(=O)C4CC4)C[C@H]3C(F)F)N(C2)C1=O` [Example 19, (1aS,2aR,6S,9S,11R,23aR,23bS)-6-tert-butyl-15-chloro-N-[(1R,2R)-1-[(cyclopropylsulfonyl)carbamoyl]-2-(difluoromethyl)cyclopropyl]-4,7-dioxo-1a,2,2a,4,5,6,7,10,11,19,20,21,22,23,23a, 23b-hexadecahydro-1H,9H-8,11-methanocyclopropa[4′,5′]cyclopenta[1′,2′:18,19][1,10,3,6]dioxadiazacyclononadecino[11,12-b]quinoxaline-9-carboxamide], the EC50 in assay [1] was determined as 16 nM; in assay [2], 82 nM; in assay [3], 1.3 nM; in assay [4], 3.1 nM. For the same compound, on NS3 genotype 3a protease, the Ki is 0.06 nM.
As to `COc1ccc2nc3c(nc2c1)O[C@@H]1C[C@@H](C(=O)N[C@]2(C(=O)NS(=O)(=O)C4(C)CC4)C[C@H]2CC(F)F)N(C1)C(=O)[C@H](C(C)(C)C)NC(=O)O[C@@H]1C[C@@H]2C[C@@H]2[C@H]1CCCCC3(F)F` [Example 20, (1aS,2aR,6S,9S,11R,23aR,23bS)-6-tert-butyl-N-[(1R,2S)-2-(2,2-difluoroethyl)-1-{[(1-methylcyclopropyl)sulfonyl]carbamoyl}cyclopropyl]-19,19-difluoro-15-methoxy-4,7-dioxo-1a,2,2a,4,5,6,7,10,11,19,20,21,22,23,23a,23b-hexadecahydro-1H,9H-8,11-methanocyclopropa[4′,5′]cyclopenta[1′,2′:18,19][1,10,3,6]dioxadiazacyclononadecino[11,12-b]quinoxaline-9-carboxamide], the concentration giving a half-maximal response (EC50) in assay [1] was found to be 6.3 nM; in assay [2] it was 46 nM; in assay [3] it was 5.9 nM; in assay [4] it was 5 nM. The Ki on NS3 genotype 3a protease was 0.07 nM.

These data come from patent publication US9617310B2 (priority 2013, dated 2017).
